Assay results as given in publication PMC8876959, “Comparative Evaluation of Radiochemical and Biological Properties of ^131I- and [^99mTc]Tc(CO)3-Labeled RGD Analogues Planned to Interact with the αvβ3 Integrin Expressed in Glioblastoma” (Pharmaceuticals, 2022).
Non-standard residues stand in square brackets, D forms with d. Residues, ends and D or L forms follow the SMILES beside them. Tyr(3,5-I2) = N[C@@H](Cc1cc(I)c(O)c(I)c1)C(=O)O

For `CC(C)[C@H](NC(=O)[C@H](Cc1cc(I)c(O)c(I)c1)NC(=O)[C@H](CC(=O)O)NC(=O)CNC(=O)[C@H](CCCNC(=N)N)NC(=O)CN)C(=O)O` [[^131I]I-GRGDYV] (H-GRGD[Tyr(3,5-I2)]V-OH), which Radiochemical purity in human serum up to 24 h is on record?
Its Radiochemical purity in human serum up to 24 h is over 94%.
